# Assay results: patent publication US20050112573A1, “Method of detecting toxic substance” (priority 2001, published 2005)
# Tested on: yeast genes (level of expressed mRNA)
# Experiment: DNA chip analysis of expressed mRNA of yeast genes after 2 h culture with a toxic chemical substance
# Format: cell-based, Saccharomyces cerevisiae S288C
# Method in brief: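 Values are treated-to-control fluorescence ratios from a whole-yeast-genome DNA chip (65° C, over 12 h hybridization) using Cy3/Cy5-labelled cDNA from mRNA. Log-phase S288C cells in YPD at 25° C were exposed 2 h to a toxicant at sublethal, growth-inhibiting concentration.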
substance,measurement,setting,value
HgCl2 [(3)],The level of expressed mRNA in the presence of chemical substance/,"yeast gene YAL053W, ratio to control without chemical",1.3
same,The level of expressed mRNA in the presence of chemical substance/The level of expressed mRNA in the absence of chemical substance,yeast gene YAR010C,1.2
same,The level of expressed mRNA in the presence of chemical substance/The level of expressed mRNA in the absence of chemical substance,yeast gene YBL005W-A,0.5
same,The level of expressed mRNA in the presence of chemical substance/The level of expressed mRNA in the absence of chemical substance,yeast gene YBL041W,0.9
same,The level of expressed mRNA in the presence of chemical substance/The level of expressed mRNA in the absence of chemical substance,yeast gene YBL043W,1.1
same,The level of expressed mRNA in the presence of chemical substance/,"yeast gene YBL048W, ratio to control without chemical substance, 2 h culture",2.3
same,The level of expressed mRNA in the presence of chemical substance/The level of expressed mRNA in the absence of chemical substance,yeast gene YBL078C,1.3
same,The level of expressed mRNA in the presence of chemical substance/,"yeast gene YBL107C, ratio to control without chemical substance, 2 h culture",0.4
same,The level of expressed mRNA in the presence of chemical substance/in the absence of chemical substance,yeast gene YBR036C,1.8
same,The level of expressed mRNA in the presence of chemical substance/The level of expressed mRNA in the absence of chemical substance,yeast gene YBR214W,5.7
same,The level of expressed mRNA in the presence of chemical substance/in the absence of chemical substance,yeast gene YBR298C,1.6
same,The level of expressed mRNA in the presence of chemical substance/The level of expressed mRNA in the absence of chemical substance,yeast gene YCL020W,0.5
same,The level of expressed mRNA in the presence of chemical substance/The level of expressed mRNA in the absence of chemical substance,yeast gene YCL027W,1.0
same,The level of expressed mRNA in the presence of chemical substance/The level of expressed mRNA in the absence of chemical substance,yeast gene YCR004C,12.0
same,The level of expressed mRNA in the presence of chemical substance/The level of expressed mRNA in the absence of chemical substance,yeast gene YCR071C,0.9
same,The level of expressed mRNA in the presence of chemical substance/The level of expressed mRNA in the absence of chemical substance,yeast gene YCR088W,1.2
same,The level of expressed mRNA in the presence of chemical substance/The level of expressed mRNA in the absence of chemical substance,yeast gene YDL008W,1.0
same,The level of expressed mRNA in the presence of chemical substance/,"yeast gene YDL072C, ratio to control without chemical",3.5
same,The level of expressed mRNA in the presence of chemical substance/in the absence of chemical substance,yeast gene YDL078C,1.2
same,The level of expressed mRNA in the presence of chemical substance/,"yeast gene YDL204W, ratio to control without chemical",4.8
same,The level of expressed mRNA in the presence of chemical substance/in the absence of chemical substance,yeast gene YDL215C,1.0
same,The level of expressed mRNA in the presence of chemical substance/,"yeast gene YDL222C, ratio to control without chemical",1.5
same,The level of expressed mRNA in the presence of chemical substance/The level of expressed mRNA in the absence of chemical substance,yeast gene YDL238C,1.1
same,The level of expressed mRNA in the presence of chemical substance/The level of expressed mRNA in the absence of chemical substance,yeast gene YDR055W,2.2
same,The level of expressed mRNA in the presence of chemical substance/The level of expressed mRNA in the absence of chemical substance,yeast gene YDR084C,1.5
same,The level of expressed mRNA in the presence of chemical substance/The level of expressed mRNA in the absence of chemical substance,yeast gene YDR085C,1.6
same,The level of expressed mRNA in the presence of chemical substance/The level of expressed mRNA in the absence of chemical substance,yeast gene YDR104C,1.2
same,The level of expressed mRNA in the presence of chemical substance/The level of expressed mRNA in the absence of chemical substance,yeast gene YDR115W,0.6
same,The level of expressed mRNA in the presence of chemical substance/The level of expressed mRNA in the absence of chemical substance,yeast gene YDR259C,0.4
same,The level of expressed mRNA in the presence of chemical substance/in the absence of chemical substance,yeast gene YDR297W,0.8
same,The level of expressed mRNA in the presence of chemical substance/The level of expressed mRNA in the absence of chemical substance,yeast gene YDR315C,1.0
same,The level of expressed mRNA in the presence of chemical substance/,"yeast gene YDR330W, ratio to control without chemical substance, 2 h culture",1.2
same,The level of expressed mRNA in the presence of chemical substance/The level of expressed mRNA in the absence of chemical substance,yeast gene YDR358W,0.7
same,The level of expressed mRNA in the presence of chemical substance/in the absence of chemical substance,yeast gene YDR387C,1.2
same,The level of expressed mRNA in the presence of chemical substance/The level of expressed mRNA in the absence of chemical substance,yeast gene YDR388W,1.2
same,The level of expressed mRNA in the presence of chemical substance/,"yeast gene YDR411C, ratio to control without chemical substance, 2 h culture",1.8
same,The level of expressed mRNA in the presence of chemical substance/The level of expressed mRNA in the absence of chemical substance,yeast gene YDR432W,1.0
same,The level of expressed mRNA in the presence of chemical substance/The level of expressed mRNA in the absence of chemical substance,yeast gene YDR481C,1.3
same,The level of expressed mRNA in the presence of chemical substance/The level of expressed mRNA in the absence of chemical substance,yeast gene YDR510W,1.5
same,The level of expressed mRNA in the presence of chemical substance/,"yeast gene YDR511W, ratio to control without chemical substance, 2 h culture",0.9
same,The level of expressed mRNA in the presence of chemical substance/,"yeast gene YDR545W, ratio to control without chemical substance, 2 h culture",0.6
same,The level of expressed mRNA in the presence of chemical substance/,"yeast gene YEL001C, ratio to control without chemical",1.4
same,The level of expressed mRNA in the presence of chemical substance/The level of expressed mRNA in the absence of chemical substance,yeast gene YEL042W,1.7
same,The level of expressed mRNA in the presence of chemical substance/The level of expressed mRNA in the absence of chemical substance,yeast gene YEL066W,1.5
same,The level of expressed mRNA in the presence of chemical substance/,"yeast gene YER004W, ratio to control without chemical substance, 2 h culture",1.9
same,The level of expressed mRNA in the presence of chemical substance/,"yeast gene YER035W, ratio to control without chemical substance, 2 h culture",1.6
same,The level of expressed mRNA in the presence of chemical substance/The level of expressed mRNA in the absence of chemical substance,yeast gene YER039C,1.0
same,The level of expressed mRNA in the presence of chemical substance/,"yeast gene YER079W, ratio to control without chemical substance, 2 h culture",1.9
same,The level of expressed mRNA in the presence of chemical substance/,"yeast gene YER106W, ratio to control without chemical",1.3
same,The level of expressed mRNA in the presence of chemical substance/The level of expressed mRNA in the absence of chemical substance,yeast gene YER107C,1.0
same,The level of expressed mRNA in the presence of chemical substance/The level of expressed mRNA in the absence of chemical substance,yeast gene YER130C,0.5
same,The level of expressed mRNA in the presence of chemical substance/,"yeast gene YER158C, ratio to control without chemical substance, 2 h culture",0.9
same,The level of expressed mRNA in the presence of chemical substance/,"yeast gene YER163C, ratio to control without chemical substance, 2 h culture",1.2
same,The level of expressed mRNA in the presence of chemical substance/,"yeast gene YER175C, ratio to control without chemical substance, 2 h culture",1.3
same,The level of expressed mRNA in the presence of chemical substance/,"yeast gene YFL006W, ratio to control without chemical substance, 2 h culture",1.6
